Test results as given in patent US10723699B2 (Hyundai Pharm Co., Ltd., priority 2015, dated 2020).
pEC50: −log10 of the molar value. Read-outs that look alike come from different tables or passages of the source.

Target: T1, G protein-coupled receptor 119 (GPR-119) (Mesocricetus auratus, UniProt A0A1U8CD06)
T1 construct: hamster-derived β-cells containing G protein-coupled receptor 119 (GPR-119), HIT-T15 cells; host or cells: HIT-T15 (hamster pancreatic β-cells)
T1 sequence (A0A1U8CD06 1-334): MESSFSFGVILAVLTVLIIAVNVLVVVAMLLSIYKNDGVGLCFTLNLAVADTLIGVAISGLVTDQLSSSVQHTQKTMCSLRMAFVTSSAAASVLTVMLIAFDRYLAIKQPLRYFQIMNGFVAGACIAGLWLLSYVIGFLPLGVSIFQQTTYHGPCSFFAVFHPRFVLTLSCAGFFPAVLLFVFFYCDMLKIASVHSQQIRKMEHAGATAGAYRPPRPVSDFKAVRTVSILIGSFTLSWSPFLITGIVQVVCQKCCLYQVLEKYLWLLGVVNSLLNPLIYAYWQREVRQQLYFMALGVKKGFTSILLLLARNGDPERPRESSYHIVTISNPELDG
Experiment: cAMP activity in HIT-T15 cells (cAMP dynamic kit, FRET)
Format: cell-based, hamster
Procedure: To check whether the cyclohexene derivatives according to the present invention activate cyclic adenosine monophosphate (cAMP), experiments were carried out, as follows.
The HIT-T15 cells were plated on a 96-well plate at 60,000 cells per well. On the next day of plating, the cells were treated with a varying concentration of each of the example compounds according to the present invention, and incubated at 37° C. for an hour. In this case, each of the treated compounds was used at six concentrations, ranging from 0.0032 to 10 μM, to treat the cells.
The cyclic adenosine monophosphate (cAMP) activity was measured according to the manufacturer's instruction using a cAMP dynamic kit commercially available from Cis Bio Inc. (Bedford, Mass.). The cells were lysed, and a level of cAMP was determined by a competitive immunoassay using D2-labeled cAMP and a cryptate-labeled anti-cAMP antibody. Fluorescence was read in Flex Station (Molecular Devices). […] Unlabeled cAMP in the cell lysate competed with the D2-labeled cAMP against the cryptate-labeled antibody. Since a decrease in the measured intensity of the FRET signals represents a level of cAMP in the cells, the cAMP activities of the compounds are calculated as a change in FRET signals by adjusting an amount of dimethyl sulfoxide (DMSO).

[1] = 1 hour at 37° C., six concentrations 0.0032 to 10 μM, read-out: EC50

| pEC50 (Table 2, read-out: EC50 value) | pEC50 [1] | Compound |
| --- | --- | --- |
| ≥ 7.30 |  | CC(C)c1noc(N2CCC(COc3ccc(C4=CCC(C(=O)N5CC[C@H](F)C5)CC4)cc3F)CC2)n1 (stereo partly drawn) [Example 95, (4-(3-fluoro-4-((1-(3-isopropyl-1,2,4-oxadiazol-5-yl)piperidin-4-yl)methoxy)phenyl)cyclohex-3-enyl)((S)-3-fluoropyrrolidin-1-yl)methanone] |
| ≥ 7.30 | 7.40 | CC(C)c1noc(N2CCC(COc3ccc(C4=CCC(C(=O)N5CCC(C#N)CC5)CC4)cn3)CC2)n1 (stereo not shown) [Example 338, 1-(4-(6-((1-(3-isopropyl-1,2,4-oxadiazol-5-yl)piperidin-4-yl)methoxy)pyridin-3-yl)cyclohex-3-enecarbonyl)piperidine-4-carbonitrile] |
|  | 7.26 | CCc1cnc(N2CCC(COc3ccc(C4=CCC(C(=O)N5CCCCC5)CC4)cc3C)CC2)nc1 (stereo not shown) [Example 415, (4-(4-((1-(5-ethylpyrimidin-2-yl)piperidin-4-yl)methoxy)-3-methylphenyl)cyclohex-3-enyl)(piperidin-1-yl)methanone] |
| ≥ 7.30 | 7.30 | CC(C)c1noc(N2CCC(COc3ccc(C4=CCC(C(=O)N5CCOCC5)CC4)cn3)CC2)n1 (stereo not shown) [Example 317, (4-(6-((1-(3-isopropyl-1,2,4-oxadiazol-5-yl)piperidin-4-yl)methoxy)pyridin-3-yl)cyclohex-3-enyl)(morpholino)methanone] |
| ≥ 7.30 | 7.66 | CC(C)c1noc(N2CCC(COc3ccc(C4=CCC(C(=O)N5CCC(=O)C5)CC4)cc3)CC2)n1 (stereo not shown) [Example 251] |
|  | 7.26 | O=C(Oc1ccc([N+](=O)[O-])cc1)N1CCC(COc2ccc(C3=CCC(C(=O)N4CCCC4)CC3)cc2F)CC1 (stereo not shown) [Example 404, 4-nitrophenyl 4-((2-fluoro-4-(4-(pyrrolidine-1-carbonyl)cyclohex-1-enyl)phenoxy)methyl)piperidine-1-carboxylate] |
|  | 7.20 | CCc1cnc(N2CCC(COc3ccc(C4=CCC(C(=O)N5CCSCC5)CC4)cn3)CC2)nc1 (stereo not shown) [Example 352, (4-(6-((1-(5-ethylpyrimidin-2-yl)piperidin-4-yl)methoxy)pyridin-3-yl)cyclohex-3-enyl)(thiomorpholino)methanone] |
| ≥ 7.30 | 7.57 | CCc1cnc(N2CCC(COc3ccc(C4=CCC(C(=O)N5CCC(CO)CC5)CC4)cc3C#N)CC2)nc1 (stereo not shown) [Example 391, 2-((1-(5-ethylpyrimidin-2-yl)piperidin-4-yl)methoxy)-5-(4-(4-(hydroxymethyl)piperidine-1-carbonyl)cyclohex-1-enyl)benzonitrile] |
|  | 6.80 | CC(C)c1noc(N2CCC(COc3ccc(C4=CCC(C(=O)N5CC(=NO)C5)CC4)cn3)CC2)n1 (stereo not shown) [Example 337, (3-(hydroxyimino)azetidin-1-yl)(4-(6-((1-(3-isopropyl-1,2,4-oxadiazol-5-yl)piperidin-4-yl)methoxy)pyridin-3-yl)cyclohex-3-enyl)methanone] |
| ≥ 7.30 | 7.38 | CC(C)c1noc(N2CCC(COc3ccc(C4=CCC(C(=O)N5CCN(C)CC5)CC4)cc3F)CC2)n1 (stereo not shown) [Example 382, (4-(3-fluoro-4-((1-(3-isopropyl-1,2,4-oxadiazol-5-yl)piperidin-4-yl)methoxy)phenyl)cyclohex-3-enyl)(4-methylpiperazin-1-yl)methanone] |
| ≥ 7.30 | 7.32 | CCc1cnc(N2CCC(COc3ccc(C4=CCC(C(=O)N5CCC5)CC4)c(F)c3)CC2)nc1 (stereo not shown) [Example 425, azetidin-1-yl(4-(4-((1-(5-ethylpyrimidin-2-yl)piperidin-4-yl)methoxy)-2-fluorophenyl)cyclohex-3-enyl)methanone] |
| ≥ 7.30 | 7.89 | O=C(C1CC=C(c2ccc(OCC3CCN(c4nc(C(F)(F)F)no4)CC3)c(F)c2)CC1)N1CCCC1 (stereo not shown) [Example 435, (4-(3-fluoro-4-((1-(3-(trifluoromethyl)-1,2,4-oxadiazol-5-yl)piperidin-4-yl)methoxy)phenyl)cyclohex-3-enyl)(pyrrolidin-1-yl)methanone] |
| ≥ 7.30 | 7.49 | CCc1cnc(N2CCC(COc3ccc(C4=CCC(C(=O)N5CCC[C@@H]5CO)CC4)c(F)c3)CC2)nc1 (stereo partly drawn) [Example 427, (4-(4-((1-(5-ethylpyrimidin-2-yl)piperidin-4-yl)methoxy)-2-fluorophenyl)cyclohex-3-enyl)((R)-2-(hydroxymethyl)pyrrolidin-1-yl)methanone] |
| ≥ 7.30 | 7.89 | CCc1cnc(N2CCC(COc3ccc(C4=CCC(C(=O)N5CC(F)(F)C(F)(F)C5)CC4)c(F)c3)CC2)nc1 (single isomer, unassigned; (+)) [Example 464, (+)-(4-(4-((1-(5-ethylpyrimidin-2-yl)piperidin-4-yl)methoxy)-2-fluorophenyl)cyclohex-3-enyl)(3,3,4,4-tetrafluoropyrrolidin-1-yl)methanone] |
|  | 8.00 | CC(C)c1noc(N2CCC(COc3ccc(C4=CCC(C(=O)N5CCN(C6CC6)CC5)CC4)cc3)CC2)n1 (stereo not shown) [Example 397, (4-cyclopropylpiperazin-1-yl)(4-(4-((1-(3-isopropyl-1,2,4-oxadiazol-5-yl)piperidin-4-yl)methoxy)phenyl)cyclohex-3-enyl)methanone] |
| ≥ 7.30 | 7.57 | O=C(C1CC=C(c2ccc(OCC3CCN(C(=O)C4(C(F)(F)F)CCCC4)CC3)c(F)c2)CC1)N1CCOCC1 (stereo not shown) [Example 450, (4-(3-fluoro-4-((1-(1-(trifluoromethyl)cyclopentanecarbonyl)piperidin-4-yl)methoxy)phenyl)cyclohex-3-enyl)(morpholino)methanone] |
| ≥ 7.30 | 7.55 | CCc1cnc(N2CCC(COc3ccc(C4=CCC(C(=O)N(CCO)CCO)CC4)cc3F)CC2)nc1 (stereo not shown) [Example 323, 4-(4-((1-(5-ethylpyrimidin-2-yl)piperidin-4-yl)methoxy)-3-fluorophenyl)-N,N-bis(2-hydroxyethyl)cyclohex-3-enecarboxamide] |
| ≥ 7.30 | 7.43 | CC(C)c1noc(N2CCC(COc3ccc(C4=CCC(C(=O)N5CCCCC5)CC4)cn3)CC2)n1 (stereo not shown) [Example 316, (4-(6-((1-(3-isopropyl-1,2,4-oxadiazol-5-yl)piperidin-4-yl)methoxy)pyridin-3-yl)cyclohex-3-enyl)(piperidin-1-yl)methanone] |
|  | 7.10 | CCc1cnc(N2CCC(COc3ccc(C4=CCC(C(=O)N5CCN(CCCO)CC5)CC4)cc3)CC2)nc1 (stereo not shown) [Example 380, (4-(4-((1-(5-ethylpyrimidin-2-yl)piperidin-4-yl)methoxy)phenyl)cyclohex-3-enyl)(4-(3-hydroxypropyl)piperazin-1-yl)methanone] |
| ≥ 7.30 | 7.74 | CC(C)c1noc(N2CCC(COc3ccc(C4=CCC(C(=O)N5CCC(CCO)CC5)CC4)cc3F)CC2)n1 (stereo not shown) [Example 335, (4-(3-fluoro-4-((1-(3-isopropyl-1,2,4-oxadiazol-5-yl)piperidin-4-yl)methoxy)phenyl)cyclohex-3-enyl)(4-(2-hydroxyethyl)piperidin-1-yl)methanone] |
| ≥ 7.30 | 7.96 | CCc1cnc(N2CCC(COc3ccc(C4=CCC(C(=O)N5CCC(=NO)CC5)CC4)cc3F)CC2)nc1 (stereo not shown) [Example 377, (4-(4-((1-(5-ethylpyrimidin-2-yl)piperidin-4-yl)methoxy)-3-fluorophenyl)cyclohex-3-enyl)(4-(hydroxyimino)piperidin-1-yl)methanone] |
| ≥ 7.30 | 8.17 | CCc1cnc(N2CCC(COc3ccc(C4=CCC(C(=O)N5CCC(CCO)CC5)CC4)cc3F)CC2)nc1 (stereo not shown) [Example 296, (4-(4-((1-(5-ethylpyrimidin-2-yl)piperidin-4-yl)methoxy)-3-fluorophenyl)cyclohex-3-enyl)(4-(2-hydroxyethyl)piperidin-1-yl)methanone] |
| ≥ 7.30 | 8.17 | CCc1cnc(N2CCC(COc3ccc(C4=CCC(C(=O)N5CCCCC5)CC4)c(F)c3)CC2)nc1 (stereo not shown) [Example 426, (4-(4-((1-(5-ethylpyrimidin-2-yl)piperidin-4-yl)methoxy)-2-fluorophenyl)cyclohex-3-enyl)(piperidin-1-yl)methanone] |
| ≥ 7.30 | 7.46 | CC(C)c1noc(N2CCC(COc3ccc(C4=CCC(C(=O)N5CCC5)CC4)cc3F)CC2)n1 (stereo not shown) [Example 330, azetidin-1-yl(4-(3-fluoro-4-((1-(3-isopropyl-1,2,4-oxadiazol-5-yl)piperidin-4-yl)methoxy)phenyl)cyclohex-3-enyl)methanone] |
| ≥ 7.30 | 7.60 | CC1(OC(=O)N2CCC(COc3ccc(C4=CCC(C(=O)N5CCCC5)CC4)cc3F)CC2)CC1 (stereo not shown) [Example 408, 1-methylcyclopropyl 4-((2-fluoro-4-(4-(pyrrolidine-1-carbonyl)cyclohex-1-enyl)phenoxy)methyl)piperidine-1-carboxylate] |
